# Data as given in BindingDB's records for PubMed 2547939 (Abbott Laboratories, 1989).
# Assays:
# [1] = biological target: T1, Muscarinic acetylcholine receptor M1 (Rattus norvegicus, UniProt P08482)
# T1 sequence (P08482 whole entry): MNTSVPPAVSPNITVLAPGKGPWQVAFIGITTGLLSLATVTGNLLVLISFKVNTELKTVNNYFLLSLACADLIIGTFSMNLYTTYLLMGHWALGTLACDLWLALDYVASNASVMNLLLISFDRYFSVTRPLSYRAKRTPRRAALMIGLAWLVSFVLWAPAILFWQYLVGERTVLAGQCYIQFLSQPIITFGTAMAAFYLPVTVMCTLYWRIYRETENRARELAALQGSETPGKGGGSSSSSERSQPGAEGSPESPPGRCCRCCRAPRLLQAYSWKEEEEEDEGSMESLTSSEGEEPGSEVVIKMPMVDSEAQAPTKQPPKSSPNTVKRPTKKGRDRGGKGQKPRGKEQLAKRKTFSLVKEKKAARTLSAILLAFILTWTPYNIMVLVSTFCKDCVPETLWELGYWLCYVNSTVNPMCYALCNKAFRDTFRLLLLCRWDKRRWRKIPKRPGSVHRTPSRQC
# [2] = biological target: T2, Muscarinic acetylcholine receptor M2 (Rattus norvegicus, UniProt P10980)
# T2 sequence (P10980 whole entry): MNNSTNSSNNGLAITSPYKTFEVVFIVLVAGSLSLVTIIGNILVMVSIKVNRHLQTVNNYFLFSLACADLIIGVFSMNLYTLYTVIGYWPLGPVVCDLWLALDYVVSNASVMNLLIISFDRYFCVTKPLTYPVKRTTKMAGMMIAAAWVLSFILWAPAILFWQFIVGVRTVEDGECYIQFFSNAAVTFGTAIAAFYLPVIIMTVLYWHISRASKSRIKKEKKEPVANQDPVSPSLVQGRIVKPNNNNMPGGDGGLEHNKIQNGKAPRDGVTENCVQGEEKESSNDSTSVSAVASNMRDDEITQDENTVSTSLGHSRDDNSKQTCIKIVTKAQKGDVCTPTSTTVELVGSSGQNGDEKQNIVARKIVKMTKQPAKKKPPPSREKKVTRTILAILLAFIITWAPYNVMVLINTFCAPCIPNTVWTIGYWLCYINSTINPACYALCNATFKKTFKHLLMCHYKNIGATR
Compound,Ki [1] [nM],Ki [2] [nM]
"CCN(CC)CC1CCCCN1CC(=O)N1c2ccccc2C(=O)Nc2cccnc21 (stereo not drawn) [(AF-DX 116) 11-[2-(2-Diethylaminomethyl-piperidin-1-yl)-acetyl]-5,11-dihydro-benzo[e]pyrido[3,2-b][1,4]diazepin-6-one]",180,33.9
O[Si](CCCN1CCCCC1)(c1ccccc1)C1CCCCC1 (stereo not drawn) [HHSiD],14.8,–
